Values joined by “and” are separate entries in the source; they are usually repeats but may differ in a detail not shown here. Identical values can stand only once.

Data set [1] deals with male C57BL/6J (B6) mice, aged 18 months. Kind of data set: Novel Object Recognition test, aged mice treated with adropin^34-76. Format: in vivo, mouse. The protocol:
For the novel object recognition task, mice are habituated to an empty apparatus, a 58×66×11-cm white plastic box, for 5 min a day for 3 consecutive days prior to entry of objects. On the first day of training, mice are placed in the testing apparatus with two identical objects (A and B). 24h later the animal is reintroduced to the arena but this time one of the original objects is removed and a new object (C). Total time spent exploring each of the two objects is recorded. Anxiety will be assessed using open field and elevated plus maze tests. The experimental apparatus consists of a central platform, two open arms and two equal-sized closed arms opposite to each other. The test consisted of placing a mouse in the central platform facing an enclosed arm and allowing it to freely explore the maze for 5 min. The number of entries into the open and closed arms and the time spent in open arms was measure by an observer blind to treatment
(§1) To examine the effects of endogenous adropin on a subject's cognitive ability, 34 male C57BL/6J (B6) mice, aged 18 months, were treated with exogenous adropin^34-76. Mice were purchased from The Jackson Laboratory (Bar Harbor, Me.). After acclimation for 1 month, mice were separated into two weight matched groups of 15 mice: Group 1 adropin^34-76 treatment group and Group 2 saline vehicle control.
(§2) The mice were administered a single intraperitoneal injection (volume 100 μl) each morning (0900h) for 4 weeks. Group 1 was administered adropin^34-76 at a dose of 90 nmol/kg/day. Group 2 was administered saline. The peptide was purchased from Neoscientific Inc. Behavioral testing began after 2 weeks of injections. Injections continued though testing until 4 weeks.
A non-amnesic subject will spend more time exploring the novel object than the familiar one. When adropin treated and vehicle treated mice were subjected to the Novel Object Recognition test, adropin treated mice spent more time exploring the novel object (FIG. 11, Table 1)

For data set [2] the test system is unchanged. Put plainly: Aversive T-maze acquisition, aged mice treated with adropin^34-76. It is filed as in vivo, mouse. The note with it: 90 nmol/kg/day ip. As to the method:
(§3) Memory retention and acquisition were assessed using an aversive T-maze and novel objective recognition, as previously described (Farr et al., (2016) J Alzheimers Dis.; 54(4):1339-1348). Briefly, the T-maze consists of a black plastic alley with a start box at one end and two goal boxes at the other. An electrifiable floor of stainless steel rods run throughout the maze to deliver a foot-shock using a scrambled grid floor shocker (Model E13-08, Coulbourn Instruments, Whitehall, Pa.). Mice are not permitted to explore the maze prior to training. A block of training trials begins when mice are placed in the start box. The guillotine door is raised and a cue buzzer sounded simultaneously (doorbell type, at 55 dB); 5s later a mild aversive foot-shock is applied with an intensity of 0.35 mA. The arm of the maze entered on the first trial is designated “incorrect” and the mild foot-shock continued until the mouse enters the other goal box, which in all subsequent trials is designated “correct” for each mouse. Mice are trained until they made one active avoidance, with an inter-trial interval of 30-35s. The number of trials to make one active avoidance is the measure of acquisition. Retention is tested 7d later, with training continued until the criterion of making five active avoidances in six consecutive trials is achieved. The number of trials needed to reach this criterion is the measure of retention (Butler et al., (2012) The Journal of clinical endocrinology and metabolism; 97(10):3783-3791; Wong et al., (2014) The Journal of biological chemistry; 289(37):25976-25986).
as §1, §2
Mice prepared with adropin or placebo in Example 3 were subjected to the Acquisition T-maze test.

Data set [3] has the same test system. Put plainly: Aversive T-maze retention (retest after 7 days), aged mice treated with adropin^34-76. Format: in vivo, mouse. Conditions: 90 nmol/kg/day ip. The protocol: as §3, §1, §2
(FIG. 12, Table 3) Mice were retested in the maze after 7 days and Adropin treated mice retained learned memories and complete the maze in lets time.

A short description of data set [4]: Body weight and survival during 4 weeks of adropin^34-76 injections. It is filed as in vivo. The note with it: group 1 (adropin^34-76, 90 nmol/kg/day ip), 15 mice. As to the method:
as §1, §2

For data set [5], the system named is Male C57BL/6J B6 mice subjected to TBI. Kind of data set: T-maze retention after mild closed-head traumatic brain injury (TBI). Format: in vivo, mouse. As to the method: FIG. 16 illustrates the results of T-maze data from adropin treated and adropin transgenic mice after traumatic brain injury. SHAM are mice handled but not subject to injury. Veh are mice treated with 0.9% saline. […] (A) Mice used were males, aged 10-14 weeks, purchased from the Jackson laboratory. (B) “TG” are adropin transgenic mice. “WT” are wild-type littermates. All mice were males aged 9-12 months.
Memory retention and acquisition were assessed using an aversive T-maze and novel objective recognition, as previously described (Farr et al., (2016) J Alzheimers Dis.; 54(4):1339-1348). Briefly, the T-maze consists of a black plastic alley with a start box at one end and two goal boxes at the other. An electrifiable floor of stainless steel rods run throughout the maze to deliver a foot-shock using a scrambled grid floor shocker (Model E13-08, Coulbourn Instruments, Whitehall, Pa.). Mice are not permitted to explore the maze prior to training. A block of training trials begins when mice are placed in the start box. The guillotine door is raised and a cue buzzer sounded simultaneously (doorbell type, at 55 dB); 5s later a mild aversive foot-shock is applied with an intensity of 0.35 mA. The arm of the maze entered on the first trial is designated “incorrect” and the mild foot-shock continued until the mouse enters the other goal box, which in all subsequent trials is designated “correct” for each mouse. Mice are trained until they made one active avoidance, with an inter-trial interval of 30-35s. The number of trials to make one active avoidance is the measure of acquisition. […]
(§4) TBI PROCEDURE: Mice were exposed to mild closed-head concussive TBI. […] Adequate anesthesia was determined by the lack of both the corneal reflex and toe pinch reflex. […] Following Isoflurane anesthesia and the weight drop procedure, mouse respiration, heart rate and righting reflex was monitored to ensure recovery. The righting reflex time was recorded for each mouse. […] When the mouse moves from a supine to a prone position, i.e., rights itself, the time will be recorded. […]

The subject of another data set is plasma cytokine levels. Kind of data set: Plasma cytokine levels after TBI. Format: in vivo, mouse. Conditions: TBI followed by adropin vs TBI followed by saline. The protocol:
FIG. 17 illustrates plasma cytokine levels of mice that were: uninjured, subjected to TBI, and subjected to TBI followed by adropin injections.
TBI PROCEDURE: Mice were exposed to mild closed-head concussive TBI. Mice were anesthetized with isoflurane 2-4% and placed under a device consisting of a Plexiglas tube (inner diameter 13 mm) placed vertically over the animal's head. Adequate anesthesia was determined by the lack of both the corneal reflex and toe pinch reflex. Each mouse received 90 sec Isoflurane anesthesia in the induction chamber. The injury was induced by dropping a 25-gm acrylic weight from 80 cm height down the Plexiglas tube, striking the skull. This weight was chosen based upon literature using this type of device (Tweedie et al. (2016) PLoS One. 11(6):e0156493; Zohar et al. (2011) Acta Neurobiol Exp. 71:36-45). […] Following Isoflurane anesthesia and the weight drop procedure, mouse respiration, heart rate and righting reflex was monitored to ensure recovery. The righting reflex time was recorded for each mouse. […] When the mouse moves from a supine to a prone position, i.e., rights itself, the time will be recorded. […] One hour following the weight drop injury four reflexes were checked and recorded: the corneal reflex in both eyes, hindleg extension when held by the tail, startle response from a puff of air, and the ability to walk with a normal gate. […]

Data set [6] has as its system Hippocampal gene expression. Put plainly: Hippocampal gene expression (cytokines, growth factors) after TBI. Format: in vivo, mouse. Conditions: TBI+Adr vs TBI+veh and Sham. The protocol: FIG. 18 illustrates Hippocampal gene expression. There are increases in the expression of cytokines (significant for IL16, CCI2, IL17) in the hippocampus of TBI-veh mice versus uninjured (sham) controls TBI also appears to result in changes in expression of growth factors (BDNF, VEGF). In most cases, these changes were attenuated by adropin treatment.
Gene expression was assessed using qRT-PCR as previously described. Hippocampal and cortical tissue samples were dissected from fresh brains and snap frozen brains on dry-ice cold isopentane. Total RNA was extracted using Trizol (Invitrogen, Life Technologies) and treated with a DNAfree kit (Ambion, Life Technologies). […] Quantitative PCR was performed in 96-well plates using Taqman gene expression and QuantStudio 7 Detection Systems (Applied Biosystems, Life Technologies); 36B4 was used as the reference gene.
as §4

The nature of data set [7]: Metabolic effect of adropin^34-76 administration in mice. It is filed as in vivo, mouse. The note with it: delivered as two 45 nmol/kg injections. From the text:
(§5) Using mice, the Inventors have shown that administration of adropin^34-76, in doses as low as 90 nmol/kg/day, delivered as two 45 nmol/kg injections, can be effective in producing changes in metabolism. Dose as high as 900 nmol/kg/d are well tolerated in mice. While the doses required for a desired clinical effect in humans is expected to vary between patients, the 90 nmol/kg dose administered by subcutaneous, intramuscular, or intravenous injection, either once or twice a day, may represent a preferred treatment protocol. It is anticipated that the treatments would be administered daily, although long-acting formulations involving weekly injections are envisaged. The optimum dose and frequency for a particular subject may be determined by the patient's treating physician, based on the patient's cognitive response. It is anticipated that adropin therapy may or may not improve a subject's cognitive function relative to current baseline, however adropin therapy may result in significant delays in the advancement of the disease. Improvement may manifest as a significant delay or a reduced rate of subsequent cognitive decline.

The nature of data set [8]: Tolerability of adropin^34-76 in mice. Format: in vivo, mouse.
Source text: as §5

Data set [9] concerns subjects with diet-induced obesity. The note with it: Kumar et al. 2008, Gao et al. 2014, 2015; cited from earlier work.
Setting [10] is: n = 14, SEM in next cell, P <0.0001 vs vehicle.

Consider “adropin^34-76 (CHSRSADVDSLSESSPNSSPGPCPEKAPPPQKPSHEGSYLLQP; Adropin; UniProt Q6UWT2 34-76, looked up, fragment)”, for which the “Novel Object Recognition, result in words vs vehicle treated mice” value in [1] (90 nmol/kg/day ip) is given as “improved cognitive performance”. Also, the “Novel Object Recognition, difference between means (Adropin vs. Vehicle)” value in data set [1] (90 nmol/kg/day ip, vehicle mean 43.90) was determined as 14.99. Besides, the “Novel Object Recognition, mean (Adropin)” value in [1] (n = 15, SEM in next cell, P 0.0183 vs vehicle, unpaired t test, 90 nmol/kg/day ip) worked out at 58.88. Moreover, the “Novel Object Recognition test, 24 Hour delay % Novel Object (individual mice)” value in [1] (one value per mouse, 90 nmol/kg/day ip for 4 weeks, testing after 2 weeks) was 55.56% and 77.50% and 66.67% and 79.10% and 51.06% and 100.00% and 51.61% and 46.43% and 42.86% and 53.06% and 37.50% and 40.74% and 64.58% and 62.50% and 58.82%. Besides, the “T-maze acquisition, result in words vs placebo treated mice” value in [2] is “performed better”. For the same substance, the “T-maze acquisition, difference between means (Adropin vs. Vehicle)” value in data set [2] (vehicle mean 10.80) was −3.443. The “T-maze acquisition, mean (Adropin)” value in data set [2] (setting [10]) is reported as 7.357. Also, the “T-maze acquisition (individual mice)” value in data set [2] (one value per mouse, number of trials to make one active avoidance) is 7. (5×) and 8. (4×) and 9. (2×) and 6. (3×). The “T-maze Retention, difference between means (Adropin vs. Vehicle)” value in data set [3] (vehicle mean 9.200) is −2.343. Further, in data set [3] (setting [10]), the “T-maze Retention, mean (Adropin)” value worked out at 6.857. The “T-maze Retention (individual mice)” value in data set [3] (one value per mouse, trials to five active avoidances in six consecutive trials, 7 d later) was 7. (7×) and 8. and 6. (5×) and 9. Further, the “T-maze retention, result in words vs vehicle” value in data set [3] (retested after 7 days) is reported as “superior performance”. Further, the deaths during treatment entry in data set [4] is “One mouse in group 1 died”. For the same substance, the “deficits in spatial learning and memory after TBI” value in [5] (450 nmol/kg iv at 1 h and 450 nmol/kg ip at 24 h post-injury, male B6 mice) was “exhibited protection from deficits in spatial learning and memory”. In addition, the “T-maze retention after TBI, compared with uninjured vehicle treated controls” value in [5] (TBI+Adro vs SHAM+Veh) is given as “not significantly different”. In addition, in [5] (TBI+Adro vs TBI+Veh, injections 1 h and 24 h post-injury, ** 99% confidence), the “T-maze retention after TBI, compared with TBI followed by saline” value was “significantly improved”. Moreover, the “plasma cytokine levels after TBI, in words” value in the data set with plasma cytokine levels is on record as “possible reduction in inflammatory responses to TBI”. For the same substance, the “TBI-induced changes in hippocampal cytokine and growth factor expression, in words” value in data set [6] is reported as “these changes are attenuated in most cases”. In data set [7], the “dose effective in producing changes in metabolism” value is reported as at least 90 nmol/kg/day. For the same substance, in data set [8], the dose well tolerated was at most 900 nmol/kg/day. The “metabolic changes after intraperitoneal injection, in words” value in [9] is “metabolic changes suggesting improvements in glucose control and reduced risk for type 2 diabetes”.

The values above are taken from US20220370566A1, “METHOD AND COMPOSITIONS FOR TREATING DECREASED COGNITIVE ABILITY” (Saint Louis University, priority 2018, published 2022).
